Measurements taken from patent US8575135B2 (Gilead Sciences, Inc., priority 2011, dated 2013).
pEC50: −log10 of the molar value. Like-named read-outs stand apart in the source and are kept apart here.

How the values were obtained:
[1] = test system: stable HCV 1a RLuc replicon cells (genotype 1a H77 replicon); assay: microbe, parasite or virus in culture; format: cell-based; conditions: Hepatitis C virus; for pEC50: read-out: 1a; for EC50: read-out: 1a (nM)
[2] = test system: stable HCV 1b RLuc replicon cells (genotype 1b Con1 replicon); assay: microbe, parasite or virus in culture; format: cell-based; conditions: Hepatitis C virus, read-out: 1b (nM)
[3] = IV and PO single dose pharmacokinetic studies in SD rats; format: in vivo; conditions: male, Sprague-Dawley, rat, plasma, IV infusion 1 mg/kg vs oral gavage 2 mg/kg, read-out: Rat % F
Procedure: IV and PO Single Dose Pharmacokinetic Studies in SD Rats: The pharmacokinetics of selected compounds was characterized in male Sprague-Dawley (SD) rats (250-300g). […] The intravenous (IV) dosing vehicle was 5% ethanol, 35% polyethylene glycol 400 (PEG 400) and 60% water pH 2.0. […] Serial blood samples (approximately 0.3 mL each) were collected from jugular vein or other suitable vein at specified time points. […] The blood samples were collected into Vacutainer™ tubes containing EDTA-K3 as the anti-coagulant and were centrifuged at approximately 4° C. to obtain plasma. The plasma samples were stored at −20° C. until analysis by LC/MS/MS. A bioanalytical method utilizing high performance liquid chromatography coupled to tandem mass spectrometry (LC/MS/MS) was developed for analysis of the selected compound in rat plasma. Detection was performed using selected reaction monitoring (SRM); […] Standard curve and quality control samples were prepared in male rat plasma and processed in the same way as the test samples to generate quantitative data. Pharmacokinetic parameters were generated using non-compartmental pharmacokinetic analysis (Phoenix WinNonlin, version 6.3). Values below the lower limit of quantification (LLOQ) were assigned a value of zero if predose and treated as missing thereafter. Area under the curve (AUC) was calculated using the linear trapezoidal rule. The oral bioavailability (% F) was determined by comparison of the area under the curve (AUC) of the compound and/or a metabolite generated in plasma following oral administration to that generated following intravenous administration.

[4] = test system: 1a Pi-Rluc replicon with Q30R in genotype 1a NS5A; assay: microbe, parasite or virus in culture; format: cell-based, HCV; conditions: Hepatitis C virus; for pEC50: read-out: 1a Q30R; for EC50: read-out: 1a Q30R (nM)
In short: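 Renilla luciferase replicon assay: 1a Pi-RLuc replicon carrying NS5A Q30R, transfected transiently into cured-51 (Huh-7-derived) cells.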

[5] = test system: stable HCV 2a JFH-1 Rluc replicon cells (L31 present in NS5A); assay: microbe, parasite or virus in culture; format: cell-based; conditions: Hepatitis C virus; for pEC50: read-out: 2a JFH; for EC50: read-out: 2a JFH (nM)
[6] = test system: NS5A chimeric genotype 2a JFH-1 replicon with genotype 2b MD2b-1 strain NS5A gene (M31 present); assay: microbe, parasite or virus in culture; format: cell-based, HCV; conditions: Hepatitis C virus; for pEC50: read-out: 2b
In short: (§1)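 Con1 1b replicons carrying 3a S52 or 4a ED43 NS5A with Pi-RLuc reporter were transiently transfected into Huh-Lunet cells; 2b MD2b-1 NS5A (M31) in JFH-1 2a backbone with RLuc-Neo, transient or stable.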

[7] = test system: NS5A chimeric genotype 1b Con1 replicon with genotype 3a S52 strain NS5A gene; assay: microbe, parasite or virus in culture; format: cell-based, HCV; conditions: Hepatitis C virus; for pEC50: read-out: 3a; for EC50: read-out: 3a (nM)
In short: as §1

[8] = test system: NS5A chimeric genotype 2a JFH-1 replicon with genotype 2a J6 strain NS5A gene (M31 present); assay: microbe, parasite or virus in culture; format: cell-based, HCV; conditions: Hepatitis C virus; for pEC50: read-out: 2a J6
[9] = test system: NS5A chimeric genotype 1b Con1 replicon with genotype 4a ED43 strain NS5A gene; assay: microbe, parasite or virus in culture; format: cell-based, HCV; conditions: Hepatitis C virus; for pEC50: read-out: 4a

Compound | pEC50 [1] | EC50 [1] | EC50 [2] | bioavailability [3] | pEC50 [4] | EC50 [4] | pEC50 [5] | EC50 [5] | pEC50 [6] | EC50 ([6]; read-out: 2b (t) (nM)) | pEC50 [7] | EC50 [7] | pEC50 [8] | EC50 ([8]; read-out: 2a Jb (t) (nM)) | pEC50 [9] | EC50 ([9]; read-out: 4a (t) (nM)) | EC50 ([6]; read-out: 2b (s) (nM)) | EC50 ([8]; read-out: 2a J6 (s) (nM)) | EC50 ([9]; read-out: 4a (s) (nM))
CCC(C)[C@H](NC(=O)OC)C(=O)N1C[C@@H](C)CC1c1ncc(-c2ccc3c(c2)COc2cc4c(ccc5nc([C@@H]6CC(COC)CN6C(=O)[C@H](NC(=O)OC)c6ccccc6)[nH]c54)cc2-3)[nH]1 (stereo in doubt) [Example QB, Methyl {(1R)-2-[(2S,4S)-2-(9-{2-[(2S,4S)-1-{(2S,3R)-2-[(methoxycarbonyl)amino]-3-methylpentanoyl}-4-methylpyrrolidin-2-yl]-1H-imidazol-5-yl}-1,11-dihydroisochromeno[4′,3′:6,7]naphtho[1,2-d]imidazol-2-yl)-4-(methoxymethyl)pyrrolidin-1-yl]-2-oxo-1-phenylethyl}carbamate] | > 9.00 | 0.011 nM | 0.011 nM | 9.56% | > 9.00 | 0.029 nM | > 9.00 | 0.008 nM | > 9.00 | 0.022 nM | > 9.00 | 0.028 nM | > 9.00 | 0.021 nM |  |  |  |  | 
COC(=O)N[C@H](C(=O)N1[C@@H](C)CC[C@H]1c1ncc(-c2ccc3c(c2)COc2cc4c(ccc5nc([C@@H]6CC[C@H](C)N6C(=O)[C@@H](NC(=O)OC)[C@@H](C)OC)[nH]c54)cc2-3)[nH]1)[C@@H](C)OC [Example NI, Methyl [(2S,3R)-3-methoxy-1-{(2S,5S)-2-[9-(2-{(2S,5S)-1-[N-(methoxycarbonyl)-O-methyl-L-threonyl]-5-methylpyrrolidin-2-yl}-1H-imidazol-5-yl)-1,11-dihydroisochromeno[4′,3′:6,7]naphtho[1,2-d]imidazol-2-yl]-5-methylpyrrolidin-1-yl}-1-oxobutan-2-yl]carbamate] | > 9.00 | 0.015 nM |  | 24.1% | > 9.00 | 0.059 nM | > 9.00 | 0.007 nM | > 9.00 | 0.019 nM | > 9.00 | 0.022 nM | > 9.00 | 0.026 nM | > 9.00 | 0.02 nM | 0.054 nM | 0.169 nM | 
COC[C@H]1C[C@@H](c2nc3ccc4cc5c(cc4c3[nH]2)OCc2cc(-c3cnc([C@@H]4CC[C@H](C)N4C(=O)[C@@H](NC(=O)OC)C(C)C)[nH]3)ccc2-5)N(C(=O)[C@H](NC(=O)OC)c2ccccc2)C1 [Example NP, Methyl {(2S)-1-[(2S,5S)-2-(5-{2-[(2S,4S)-1-{(2R)-2-[(methoxycarbonyl)amino]-2-phenylacetyl}-4-(methoxymethyl)pyrrolidin-2-yl]-1,11 dihydroisochromeno[4′,3′:6,7]naphtho[1,2-d]imidazol-9-yl}-1H-imidazol-2-yl)-5-methylpyrrolidin-1-yl]-3-methyl-1-oxobutan-2-yl}carbamate] | > 9.00 | 0.014 nM |  | 26.1% | > 9.00 | 0.032 nM | > 9.00 | 0.007 nM | > 9.00 | 0.011 nM | > 9.00 | 0.02 nM | > 9.00 | 0.01 nM | > 9.00 |  | 0.043 nM | 0.096 nM | 0.028 nM
